In patent US8598190B2, “3H-imidazo [4, 5-C] pyridine-6-carboxamides as anti-inflammatory agents” (Boehringer Ingelheim International GmbH, priority 2008, dated 2013):

Biological target: T1, recombinant human mPGES-1 (Homo sapiens, UniProt O14684)
T1 construct: made in house; host or cells: Rosetta E. coli (microsomal/membrane fraction)
T1 sequence (O14684 1-152): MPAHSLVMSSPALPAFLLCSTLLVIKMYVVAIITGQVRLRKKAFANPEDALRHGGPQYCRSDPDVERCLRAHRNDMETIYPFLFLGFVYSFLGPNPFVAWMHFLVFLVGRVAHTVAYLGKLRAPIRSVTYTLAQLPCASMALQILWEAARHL
Experiment: mPGES-1 inhibition test (microsomes, HTRF detection of PGE2)
Type: biochemical
Procedure: Microsomes from Rosetta E. coli bacteria expressing recombinant human mPGES-1 is dissolved in 0.1 M KPi pH 7.4 buffer containing 2.5 mM GSH. 50 μl of the enzyme is subsequently dispensed in a 384-well plate. 0.5 μl of the inhibitor dissolved in DMSO at is thereafter added to each well and incubated for 25 minutes at room temperature.
Subsequently, 2 μl of PGH2 dissolved in an appropriate solvent is added to each well and after one minute the acidified stop solution containing FeCl2 is added. 4 μl of the total volume is transferred to a separate plate and diluted 750-fold in two separate steps before HTRF detection of PGE2.
The HTRf detection is performed by the use of a commercially available kit from CisBio essentially according to the manufacturer's protocol. Briefly, 10 μl of the diluted sample is transferred to a white 384-well plate. 5 μl of d2 and 5 μl Eu3+-Cryptate labeled anti-PGE2 is added to each well containing samples by the use of a Multidrop. The plate is covered with a plastic self-adhesive film, centrifuged at 1200 rpm for 1 minute and subsequently stored at +4° C. over night.
After over night incubation the fluorescence is measured by the use of an appropriate microplate reader. The fluorescence of europium cryptate, and d2 are measured using the following excitation and emission wavelength, europium cryptate: λmax^ex=307 nm, λmax^em=620 nm and d2: λmax^ex=620 nm, λmax^em=665 nm), respectively. The extent of the specific FRET is measured as a ratio of the emission intensity at 665 nm vs. that at 620 nm. A standard curve using synthetic PGE2 is used to quantify the amount of PGE2 in unknown samples.

inhibition at 10 µM [%]	SMILES
98	O=C(N[C@H]1CC[C@H](C(F)(F)F)CC1)c1cc2[nH]c(Nc3c(Cl)cccc3Cl)nc2cn1 [Example 481, 2-(2,6-Dichlorophenylamino)-N-((1r,4r)-4-trifluoromethyl-cyclohexyl)-1H-imidazo[4,5-c]pyridine-6-carboxamide]
98	Cn1c(Nc2c(Cl)cncc2Cl)nc2cc(C(=O)Nc3cc(C(F)(F)F)ccn3)ncc21 [Example 482, 2-(3,5-Dichloropyridin-4-ylamino)-3-methy-N-(4-trifluoromethyl-pyridin-2-yl)-3H-imidazo[4,5-c]pyridine-6-carboxamide]
100	Cn1c(Nc2c(Cl)cccc2Cl)nc2cc(C(=O)NC3CCCCC3)ncc21 [Example 487, N-Cyclohexyl-2-(2,6-dichlorophenylamino)-3-methyl-3H-imidazo[4,5-c]pyridine-6-carboxamide]
86	O=C(Nc1cc(OC2CCOC2)ccn1)c1cc2[nH]c(Nc3c(Cl)cccc3Cl)nc2cn1 (centres unmarked) [Example 495, 2-(2,6-Dichlorophenylamino)-N-(4-(tetrahydrofuran-3-yl-oxy)-pyridin-2-yl)-1H-imidazo[4,5-c]pyridine-6-carboxamide]
100	Cn1c(Nc2c(F)cccc2Cl)nc2cc(C(=O)NCc3ncccc3C(F)(F)F)ncc21 [Example 504, 2-(2-Chloro-6-fluorophenylamino)-3-methyl-N-((3-trifluoromethyl-pyridin-2-yl)-methyl)-3H-imidazo[4,5-c]pyridine-6-carboxamide]
97	O=C(NCc1ncccc1C(F)(F)F)c1cc2[nH]c(Nc3c(Cl)cccc3Cl)nc2cn1 [Example 509, 2-(2,6-Dichlorophenylamino)-N-((3-trifluoromethyl-pyridin-2-yl)methyl)-1H-imidazo[4,5-c]pyridine-6-carboxamide]
100	Cn1c(Nc2c(Cl)cncc2Cl)nc2cc(C(=O)N[C@H]3CC[C@H](C(F)(F)F)CC3)ncc21 [Example 515, 2-(3,5-Dichloropyridin-4-ylamino)-3-methyl-N-((1r,4r)-4-trifluoromethyl-cyclohexyl)-3H-imidazo[4,5-c]pyridine-6-carboxamide]
100	Cn1c(Nc2c(F)cccc2Cl)nc2cc(C(=O)NCc3ncccc3C3CC3)ncc21 [Example 522, 2-(2-Chloro-6-fluorophenylamino)-N-((3-cyclopropylpyridin-2-yl)-methyl)-3-methyl-3H-imidazo[4,5-c]pyridine-6-carboxamide]
96	Cn1c(Nc2c(Cl)cccc2Cl)nc2cc(C(=O)NCc3ncccc3C(F)(F)F)ncc21 [Example 528, 2-(2,6-Dichlorophenylamino)-3-methyl-N-((3-trifluoromethyl-pyridin-2-yl)-methyl)-3H-imidazo[4,5-c]pyridine-6-carboxamide]
95	Cn1c(Nc2c(Cl)cncc2Cl)nc2cc(C(=O)NCc3ncccc3C(F)(F)F)ncc21 [Example 550, 2-(3,5-Dichloropyridin-4-ylamino)-3-methyl-N-((3-trifluoromethyl-pyridin-2-yl)-methyl)-3H-imidazo[4,5-c]pyridine-6-carboxamide]
100	Cc1cc(C)nc(NC(=O)c2cc3[nH]c(Nc4c(Cl)cccc4Cl)nc3cn2)c1 [Example 716, 2-(2,6-Dichlorophenylamino)-N-(4,6-dimethyl-pyridin-2-yl)-1H-imidazo[4,5-c]pyridine-6-carboxamide]
100	Cc1cnc(NC(=O)c2cc3[nH]c(Nc4c(Cl)cccc4Cl)nc3cn2)cc1C [Example 717, 2-(2,6-Dichlorophenylamino)-N-(4,5-dimethyl-pyridin-2-yl)-1H-imidazo[4,5-c]pyridine-6-carboxamide]
100	Cc1cc(NC(=O)c2cc3[nH]c(Nc4c(Cl)cccc4Cl)nc3cn2)ncc1Cl [Example 718, 2-(2,6-Dichlorophenylamino)-N-(5-chloro-4-methyl-pyridin-2-yl)-1H-imidazo[4,5-c]pyridine-6-carboxamide]
100	Cc1cc(NC(=O)c2cc3[nH]c(Nc4c(Cl)cccc4Cl)nc3cn2)ncc1F [Example 719, 2-(2,6-Dichlorophenylamino)-N-(5-fluoro-4-methyl-pyridin-2-yl)-1H-imidazo[4,5-c]pyridine-6-carboxamide]
100	O=C(Nc1ccc(C(F)(F)F)cn1)c1cc2[nH]c(Nc3c(Cl)cccc3Cl)nc2cn1 [Example 720, 2-(2,6-Dichlorophenylamino)-N-(5-trifluoromethyl-pyridin-2-yl)-1H-imidazo[4,5-c]pyridine-6-carboxamide]
100	O=C(Nc1ccc(Br)cc1)c1cc2[nH]c(Nc3c(Cl)cccc3Cl)nc2cn1 [Example 722, 2-(2,6-Dichlorophenylamino)-N-(4-bromo-phenyl)-1H-imidazo[4,5-c]pyridine-6-carboxamide]
100	Cc1cc(C(F)(F)F)cc(NC(=O)c2cc3[nH]c(Nc4c(Cl)cccc4Cl)nc3cn2)n1 [Example 723, 2-(2,6-Dichlorophenylamino)-N-(6-methyl-4-trifluoromethyl-pyridin-2-yl)-1H-imidazo[4,5-c]pyridine-6-carboxamide]
100	Cc1cnc(NC(=O)c2cc3nc(Nc4c(Cl)cccc4Cl)n(C)c3cn2)cc1C [Example 724, 2-(2,6-Dichlorophenylamino)-3-methyl-N-(4,5-dimethyl-pyridin-2-yl)-3H-imidazo[4,5-c]pyridine-6-carboxamide]
100	O=C(Nc1ccc(C2CC2)cn1)c1cc2[nH]c(Nc3c(Cl)cccc3Cl)nc2cn1 [Example 725, 2-(2,6-Dichlorophenylamino)-N-(5-cyclopropyl-pyridin-2-yl)-1H-imidazo[4,5-c]pyridine-6-carboxamide]
100	Cc1cc(NC(=O)c2cc3nc(Nc4c(Cl)cccc4Cl)n(C)c3cn2)ncc1Cl [Example 726, 2-(2,6-Dichlorophenylamino)-3-methyl-N-(5-chloro-4-methyl-pyridin-2-yl)-3H-imidazo[4,5-c]pyridine-6-carboxamide]
99	O=C(Nc1cc(C(F)(F)F)ccn1)c1cc2[nH]c(Nc3c(F)cccc3C(F)(F)F)nc2cn1 [Example 727, 2-(2-Fluoro-6-trifluoromethyl-phenylamino)-N-(4-trifluoromethyl-pyridin-2-yl)-1H-imidazo[4,5-c]pyridine-6-carboxamide]
98	O=C(Nc1cc(C(F)(F)F)ccn1)c1cc2[nH]c(Nc3c(Cl)cccc3C(F)(F)F)nc2cn1 [Example 728, 2-(2-Chloro-6-trifluoromethyl-phenylamino)-N-(4-trifluoromethyl-pyridin-2-yl)-1H-imidazo[4,5-c]pyridine-6-carboxamide]
100	O=C(Nc1cc(C(F)(F)F)ccn1)c1cc2[nH]c(Nc3c(F)cccc3Cl)nc2cn1 [Example 729, 2-(2-Chloro-6-fluoro-phenylamino)-N-(4-trifluoromethyl-pyridin-2-yl)-1H-imidazo[4,5-c]pyridine-6-carboxamide]
100	O=C(Nc1cc(C(F)(F)F)ccn1)c1cc2[nH]c(Nc3c(Cl)cc(F)cc3Cl)nc2cn1 [Example 730, 2-(2,6-Dichloro-4-fluoro-phenylamino)-N-(4-trifluoromethyl-pyridin-2-yl)-1H-imidazo[4,5-c]pyridine-6-carboxamide]
100	O=C(Nc1cc(C(F)(F)F)ccn1)c1cc2[nH]c(Nc3c(F)cc(F)cc3Cl)nc2cn1 [Example 731, 2-(2-Chloro-4,6-difluoro-phenylamino)-N-(4-trifluoromethyl-pyridin-2-yl)-1H-imidazo[4,5-c]pyridine-6-carboxamide]
100	O=C(Nc1ccc(Br)cc1)c1cc2[nH]c(Nc3c(Cl)cncc3Cl)nc2cn1 [Example 732, 2-(3,5-Dichloro-pyridin-4-yl-amino)-N-(4-bromo-phenyl)-1H-imidazo[4,5-c]pyridine-6-carboxamide]
99	Cc1cc(C(F)(F)F)cc(NC(=O)c2cc3[nH]c(Nc4c(Cl)cncc4Cl)nc3cn2)n1 [Example 733, 2-(3,5-Dichloro-pyridin-4-yl-amino)-N-(6-methyl-4-trifluoromethyl-pyridin-2-yl)-1H-imidazo[4,5-c]pyridine-6-carboxamide]
99	Cn1c(Nc2cnccc2C(F)(F)F)nc2cc(C(=O)Nc3cc(C(F)(F)F)ccn3)ncc21 [Example 734, 2-(4-Trifluoromethyl-pyridin-3-ylamino)-3-methyl-N-(4-trifluoromethyl-pyridin-2-yl)-3H-imidazo[4,5-c]pyridine-6-carboxamide]

SMILES	inhibition at 10 µM [%]
O=C(NCC(F)(F)C(F)(F)C(F)(F)C(F)(F)C(F)(F)C(F)(F)C(F)(F)F)c1cc2[nH]c(Nc3c(Cl)cccc3Cl)nc2cn1 [Example 721, 2-(2,6-Dichlorophenylamino)-N-(2,2,3,3,4,4,5,5,6,6,7,7,8,8,8-pentadecafluoro-octyl)-1H-imidazo[4,5-c]pyridine-6-carboxamide]	100
